Reference: US11129871B1, “Compositions and methods for treating and preventing endoplasmic reticulum (ER) stress-mediated kidney diseases” (Washington University, priority 2018, dated 2021)

Key:
[1] = test system: 293T cells stably expressing SERCaMP; test: SERCaMP secretion (GLuc luciferase) assay of ER calcium depletion induced by thapsigargin; assay type: cell-based, human
Procedure: FIG. 11A-FIG. 11B. SERCaMP secretion is specifically triggered by ER calcium depletion. 293T cells stably expressing (A) SERCaMP or (B) control GLuc-STOP were treated with 0.1 μM TG or DMSO, for varying durations. Luciferase activity was measured in the medium (mean±SD, n=3) and normalized to the respective baseline. **P<0.01 by t-test.
RyR expression was next examined at the protein level. […] Since it has been shown that RyR2 isoform is present in the rabbit kidney cortex and its activity is modulated by phosphorylation of the channel, phosphorylation of RyR2 at Ser2808 was further examined. […] It has been shown that the carboxy-terminal sequence of an ER stress protein MANF (mesencephalic astrocyte-derived neurotrophic factor), ASARTDL (SEQ ID NO: 3), is sufficient to specifically confer ER calcium-depletion-dependent secretion. […] When human embryonic kidney (HEK) 293T cells stably expressing SERCaMP or control GLuc-STOP without the ASARTDL tag were treated with DMSO or 0.1 μM thapsigargin (TG), a SERCA inhibitor causing ER calcium depletion for 6 hours, SERCaMP secretion, as measured by luciferase activity in the cell culture medium, was increased in response to ER calcium depletion induced by TG (see e.g., FIG. 11A and FIG. 11B).

Lamb2+/- mice = test: K201 toxicity in control mice (kidney histology, BUN); assay type: in vivo, mouse; settings: K201 4 weeks vs vehicle-treated control littermates
Procedure: FIG. 13. […] HE staining of K201 or vehicle-injected kidneys at the end of treatment.
(§1) BUN was measured by using a QuantiChrom™ urea assay kit (DIUR-500) (BioAssay Systems, Hayward, Calif.).
For light microscopy, kidneys were fixed in 4% paraformaldehyde, dehydrated through graded ethanols, embedded in paraffin, sectioned at 4 μm, and stained with Hematoxylin & Eosin (H&E) by standard methods.

procaspases 12 and 3 = test: Western blot of cleaved caspase 12 and caspase 3 in podocyte lysates; assay type: cell-based, mouse; settings: Tg-C321R podocytes
Procedure: (§2) Mouse primary podocytes and isolated glomeruli were lysed by RIPA buffer (Cell signaling) containing protease inhibitor cocktail (Sigma-Aldrich) and phosphatase inhibitor tablets (Roche, Indianapolis, Ind.). The protein concentrations of cell and glomerular lysates were determined by Bio-Rad Protein assay (Hercules, Calif.) using BSA as a standard. Denatured proteins were separated on SDS-polyacrylamide gels and then transferred to polyvinylidene difluoride membranes (Thermo Scientific). The membranes were blocked with 5% non-fat milk for 1 h and then incubated overnight with primary antibodies. Following incubation, membranes were washed with 0.1% Tris-buffered saline/Tween buffer and incubated with the appropriate HRP-conjugated secondary antibodies. The proteins were then detected using ECLplus kit (GE, Pittsburgh, Pa.) and visualized in an x-ray developer. To ensure equal protein loading, the same blot was stripped with stripping buffer (25 mM glycine and 1% SDS, pH 2.0) and then incubated with an HRP-conjugated anti-mouse β-actin antibody. Protein band intensities were quantified using Image J software (NIH, Bethesda, Md.).

[2] = test system: Tg-C321R primary podocytes; test: Annexin V-FITC/PI flow cytometry of early apoptosis; assay type: cell-based, mouse
Procedure: Apoptotic cell death was measured by FITC Annexin V/PI apoptosis detection kit (BD Biosciences) according to the manufacturer's protocol. […] The untreated- and treated-podocytes were harvested, washed with cold PBS twice, resuspended in binding buffer, and stained with Annexin V-FITC and PI in dark at room temperature for 15 minutes. After incubation, binding buffer was added, and the podocytes were analyzed by flow cytometer Calibur 3 (BD Biosciences). Unstained cells, cells stained with FITC-Annexin V or PI alone were used as controls to set up compensation and quadrants in flow cytometry. The results were analyzed by Cell Quest program.

Tg-C321R mice = test: K201 treatment of podocyte ER stress-induced NS mouse model (urinary calpain, albuminuria, BUN); assay type: in vivo; settings: for albuminuria: K201 12.5-15 mg/kg i.p.
Procedure: Urinary calpain activity was measured by Calpain-Glo™ Protease Assay (Promega, Madison, Wis.). In brief, urines were incubated with calpain substrate (Succinyl-LLVY-aminoluciferin). Following cleavage of substrate by calpain, the substrate for luciferase (aminoluciferin) was released, allowing the luciferase reaction to occur and luminescence to be detected by Femtomaster FB12 Luminometer. The actual values of raw light units were normalized by urine Cr for each group.
as §1
Mouse urines were collected by manual restraint or using a metabolic cage. The mouse urines were centrifuged at 1800 g for 10 minutes to remove debris before being frozen at −70° C. Urinary Cr concentration was quantified by a QuantiChrom™ creatinine assay kit (DICT-500) (BioAssay Systems) and albuminuria was measured by a QuantiChrom™ BCG albumin assay kit (DIAG-250) (BioAssay Systems).

[3] = test system: Tg-C321R primary podocytes; test: Cytosolic calcium levels measured by Fluo-4 AM; assay type: cell-based, mouse
Procedure: The cytosolic Ca^2+ levels were measured by Fluo-4 AM (Invitrogen). Primary podocytes of the indicated genotypes were plated on 6-well plates at 1×10^5 cells/well and stained with 2.5 μM Fluo-4 AM and 1 mM probenecid in the dark at 37° C. for 30 minutes. Then the cells were washed with PBS and kept in the dark for another 30 minutes to allow cleavage of intracellular AM esters. Fluorescence was measured by flow cytometer Calibur 3 (BD Biosciences, San Jose, Calif.) at the FACS core facility of Washington University School of Medicine. The results were analyzed by Cell Quest. For measuring intracellular Ca^2+ levels in primary podocytes treated with or without […] or MANF, cells were plated on 96-well plates at 0.8×10^4 cells per well and stained with Fluo-4 AM along with probenecid to enable high-throughput readout. Fluorescence was measured at excitation wavelength 485 nm and emission wavelength 528 nm by a fluorescent plate reader Synergy H1 (BioTek, Winooski, Vt.).

primary podocytes = test: MTT cell viability assay; assay type: cell-based, mouse; settings: 1-5 μM of K201
Procedure: The higher apoptotic rates in all groups were most likely due to the effect of DMSO.
Isolated glomeruli from Tg-WT, Tg-C321R, and Lamb2^+/− mice at P27 were plated onto collagen type I-coated culture dishes, and cultured in 5% CO2 at 37° C. in DMEM (Gibco, NY):Ham's F-12 (Lonza, NY) (2:1) that contained 3T3-L1 supernatant, 5% heat-inactivated fetal bovine serum (Gibco), 1% Insulin-Transferrin-Selenium liquid media supplement (Gibco), and 100 U/ml penicillin-streptomycin (Gibco). After 3 days, cell colonies began to sprout around the glomeruli. […] Passage 0 podocytes from the indicated genotypes were used for RNA sequencing, and passages 1 and 2 podocytes for other in vitro studies.

Umod C147W/+ mice = test: DOX-induced renal tubular MANF expression in ADTKD mouse model (BUN); assay type: in vivo; settings: DOX-induced tubular MANF from 6 to 24 weeks of age, TETMANF/+, P8TA vs Umod C147W/+
Procedure: as §1
Conditional renal tubular-specific MANF transgenic mice have been generated. TET-MANF mice were crossed with renal tubular-specific rtTA (Pax8-rtTA; P8TA) mice to generate bitransgenic TETMANF/+; P8TA mice, which were further bred to Umod C147W mice to generate Umod C147W/+; TETMANF/+; P8TA and Umod C147W/+; P8TA mice. Meanwhile, control Umod^+/+; TETMANF/+; P8TA and Umod^+/+; P8TA littermates were also generated. By administrating DOX, MANF expression was induced in renal tubules of Umod C147W/+; TETMANF/+; P8TA mice and control Umod^+/+; TETMANF/+; P8TA mice starting at 6 weeks of age until 24 weeks of age. Meanwhile, single transgenic mice including Umod C147W/+; P8TA and Umod^+/+; P8TA treated with DOX for the same duration were also included as controls.

XBP1s and ATF4 = test: Western blot of XBP1s and ATF4 in podocyte lysates; assay type: cell-based, mouse; settings: MANF 5 μg/ml, 24 hours, Tg-C321R podocytes
Procedure: as §2

CHOP = test: Western blot of CHOP in podocyte lysates; assay type: cell-based, mouse; settings: MANF 5 μg/ml, 24 hours, Tg-C321R podocytes
Procedure: as §2

RyR2 = biological target: T1, RyR2 (Mus musculus, UniProt E9Q401); test: Western blot of p-RyR2 (S2808) and RyR in podocyte lysates; assay type: cell-based; settings: MANF 5 μg/ml, 24 hours, Tg-C321R podocytes
T1 construct: endogenous in cells; host or cells: mouse primary podocytes from Tg-WT and Tg-C321R mice at P27

[4] = recombinant MANF 24 h, Example 3

Molecule: COc1ccc2c(c1)CN(C(=O)CCN1CCC(Cc3ccccc3)CC1)CCS2 [K201, 4-[-3{1-(4-Benzyl)piperidinyl}propionyl]-7-methoxy-2,3,4,5-tetrahydro-1,4-benzothiazepine]
- TG-induced ER calcium depletion (SERCaMP GLuc activity in the medium) ([1]; 0.1 μM TG + 1 μM K201, 6 hours): abrogate TG-induced ER calcium depletion
- kidney histology (HE staining) (Lamb2+/- mice): no abnormality
- renal function as indicated by blood urea nitrogen (BUN) (Lamb2+/- mice): no abnormality
- activation of procaspases 12 and 3 (procaspases 12 and 3; 5 μM K201, 24 hours): abolished
- early apoptotic rate (Annexin V+/PI- cells) ([2]; 5 μM K201, 24 hours, DMSO control 24.73±2.22%): 15.23±2.84%
- albuminuria (Tg-C321R mice; 3 weeks post-injection, vehicle 0.137±0.037): 0.095±0.029 g/mg Cr
- albuminuria (Tg-C321R mice; 4 weeks post-injection, vehicle 0.142±0.022): 0.098±0.016 g/mg Cr
- Urinary calpain activity/Cr (Tg-C321R mice; K201 12.5-15 mg/kg i.p. once daily vs 20% HBC, from 2 weeks to 4 weeks post-treatment): dramatically decreased
- kidney function as indicated by blood urea nitrogen (BUN) (Tg-C321R mice; end of 4 weeks of injection, Tg-C321R mice): improved kidney function
- podocyte ER-to-cytosol calcium leak (cytosolic calcium, Fluo-4) ([3]; 5 μM K201, 24 hours): markedly blocked
- cell viability (MTT) (primary podocytes): non-toxic

Molecule: C/C=C(/C)C(=O)O[C@H]1C(C)=C2[C@H]([C@@H]1OC(=O)CCCCCCC)[C@@](C)(OC(C)=O)C[C@H](OC(=O)CCC)[C@@]1(O)[C@H]2OC(=O)[C@@]1(C)O [thapsigargin]
- SERCaMP secretion (luciferase activity in the cell culture medium) ([1]; 0.1 μM thapsigargin vs DMSO, 6 hours): increased

B1: MANF: Recombinant human MANF from R&D Systems; 18 kDa soluble ER stress inducible secreted protein (protein, UniProt P55145 25-182, looked up)
Mesencephalic …: LRPGDCEVCISYLGRFYQDLKDRDVTFSPATIENELIKFCREARGKENRLCYYIGATDDAATKIINEVSKPLAHHIPVEKICEKLKKKDSQICELKYDKQIDLSTVDLKKLRVKELKKILDDWGETCKGCAEKSDYIRKINELMPKYAPKAASARTDL
- kidney function (BUN levels) (Umod C147W/+ mice): improved the kidney function
- XBP1s and ATF4 induction (XBP1s and ATF4): inhibition
- CHOP induction (CHOP): abrogated
- active cleaved caspase 12 (procaspases 12 and 3; MANF 5 μg/ml, 24 hours): suppression
- early apoptotic rate (Annexin V+/PI-) ([2]; MANF 5 μg/ml, 24 hours, untreated 17.18±0.77%): 10.09±0.51%
- early apoptosis (Annexin V+/PI- podocytes), printed as after treatment [2, 4]: 17.27%
- early apoptosis (Annexin V+/PI- podocytes), printed as before treatment [2, 4]: 10.73%
- cytosolic calcium levels (Fluo-4) ([3]; MANF recombinant protein 5 μg/ml, 24 hours): significantly decreased
- phosphorylation of ER RyR2 (S2808) (RyR2): reduced phosphorylation
